According to patent US5017596A, “Arylpyrazolylcarbinol compounds with analgesic activity” (Laboratorios del Dr. Esteve, S.A., priority 1987, dated 1991):
Where two headings read alike, the source gives them in different places.

How the values were obtained:
Type in all cases: in vivo, Swiss male mice
Conditions in all cases: Mus musculus, po, read-out: % inhibition of contortions
[1] = tested on: contortions induced by phenylbenzoquinone in mice; assay: Analgesic activity: inhibition of the contortions induced by phenylbenzoquinone in mice (Siegmund's method)
Protocol: Analgesic activity: Inhibition of the contortions induced by phenylbenzoquinone in mice--Siegmund's method (E. Siegmund, R. Cadmus and G. Lu, Proc Soc. Exp. Biol. Med., 95, 729 (1957))
(§1) Swiss male mice weighing 17-22 grams are used. Groups containing a minimum of 4 animals are used.
Contortions are induced by the intraperitoneal injection of phenyl-p-benzoquinone (25 ml/kg of a 0.02% solution in a solution of ethanol at a concentration of 5% (v/v) in distilled water, with Evans blue in a proportion of 0.1% (w/v)) and are counted for 15 minutes as from the time of injection. Each product is suspended or dissolved in gum arabic at a concentration of 5% (w/v) in distilled water and is administered orally, at a dose of 160 mg/kg, 60 minutes before the injection of phenylbenzoquinone. The inhibition of contortions due to each product is determined, taking as the reference the contortions in a group of control animals to which only the vehicle is administered orally 60 minutes before the phenylbenzoquinone.

[2] = tested on: contortions induced by acetic acid in mice; assay: Analgesic activity: inhibition of the contortions induced by acetic acid in mice (Koster's method)
Protocol: Swiss male mice weighing 17-22 grams are used. Groups containing a minimum of 4 animals for each dose are used.
Each product is suspended or dissolved in gum arabic at a concentration of 5% (w/v) in distilled water and is administered orally, at a dose of 160 mg/kg, 60 minutes before the injection of acetic acid.

[3] = tested on: contortions induced by acetylcholine bromide in mice; assay: Analgesic activity: inhibition of the contortions induced by acetylcholine bromide in mice (Collier's method)
Protocol: as §1
Contortions are induced by the intraperitoneal injection of acetylcholine bromide (7.2 mg/kg, dissolved in physiological serum, a volume of 10 ml/kg of weight being administered) at the start of the experiment and the number of contortions is counted for 5 minutes, this being the reference number for each animal (mice with fewer than 2 contortions are rejected). Immediately afterwards, the test products are administered orally, at a dose of 160 mg/kg, in the form of a suspension or solution in gum arabic at a concentration of 5% (w/v) in distilled water. 40 and 120 minutes after the treatment, acetylcholine bromide is administered again, the contortions are noted and the readings at 40 and 120 minutes are evaluated, taking the contortions of the initial reading as the reference.

[4] = 160 mg/kg, administered orally, acetylcholine bromide 7.2 mg/kg i.p., mean of the values at 40 and 120 minutes
[5] = 160 mg/kg, administered orally 60 minutes before acetic acid i.p., contortions counted for 15 minutes
[6] = 160 mg/kg, administered orally 60 minutes before phenylbenzoquinone i.p., contortions counted for 15 minutes

CC(=O)Oc1ccccc1C(=O)O [Acetylsalicylic acid, reference compound]
inhibition in vivo at 160 mg/kg [1]: 75% | inhibition in vivo at 160 mg/kg [2]: 72.5% | inhibition in vivo at 160 mg/kg [3]: 92.5%

CN(C)CCOC(C)(c1ccc(Cl)cc1)c1nccn1C (stereo not shown) [Example 2]
inhibition in vivo at 160 mg/kg [3, 4]: 100%

CN(C)CCOC(c1cccc(Cl)c1)c1nccn1C (stereo not shown) [Example 4]
inhibition in vivo at 160 mg/kg [3, 4]: 95%

CN(C)CCOC(C)(c1ccccc1Cl)c1nccn1C (stereo not shown) [Example 5]
inhibition in vivo at 160 mg/kg [3, 4]: 100%

CN(C)CCOC(C)(c1ccc(F)cc1)c1nccn1C (stereo not shown) [Example 6]
inhibition in vivo at 160 mg/kg [2, 5]: 50% | inhibition in vivo at 160 mg/kg [3, 4]: 75%

CN(C)CCOC(C)(c1cccc(C(F)(F)F)c1)c1nccn1C (stereo not shown) [Example 7]
inhibition in vivo at 160 mg/kg [2, 5]: 67.5% | inhibition in vivo at 160 mg/kg [3, 4]: 95%

CN(C)CCOC(C)(c1cccc(Cl)c1)c1nccn1C (stereo not shown) [Example 8]
inhibition in vivo at 160 mg/kg [3, 4]: 95%

CCCCC(OCCN(C)C)(c1cccc(Cl)c1)c1nccn1C (stereo not shown) [Example 9]
inhibition in vivo at 160 mg/kg [3, 4]: 97.5%

Cn1ccnc1C(C)(OCCN1CCCC1)c1cccc(Cl)c1 (stereo not shown) [Example 12]
inhibition in vivo at 160 mg/kg [2, 5]: 82.5%

CCCCn1ccnc1C(OCCN(C)C)c1ccc(C(F)(F)F)cc1 (stereo not shown) [Example 14]
inhibition in vivo at 160 mg/kg [3, 4]: 85%

CN(C)CCOC(C)(c1ccc(Cl)c(Cl)c1)c1nccn1C (stereo not shown) [Example 18]
inhibition in vivo at 160 mg/kg [1, 6]: 82.5%

CN(C)CCOC(c1ccc(Cl)c(Cl)c1)c1nccn1C (stereo not shown) [Example 19]
inhibition in vivo at 160 mg/kg [1, 6]: 87.5%

CN(C)CCOC(C)(c1ccc(Cl)cc1)c1nccn1CCN1CCCCC1 (stereo not shown) [Example 20]
inhibition in vivo at 160 mg/kg [1, 6]: 25%

CCCCn1nccc1C(OCCN(C)C)c1ccccc1 (stereo not shown) [Example 27]
inhibition in vivo at 160 mg/kg [1, 6]: 40%

CCCCn1nccc1C(C)(OCCN(C)C)c1ccc(Cl)cc1 (stereo not shown) [Example 30]
inhibition in vivo at 160 mg/kg [1, 6]: 27.5%

CN(C)CCOC(c1ccccc1)c1ccnn1C (stereo not shown) [Example 31]
inhibition in vivo at 160 mg/kg [1, 6]: 80% | inhibition in vivo at 160 mg/kg [2, 5]: 80%

CN(C)CCOC(C)(c1ccccc1)c1ccnn1C (stereo not shown) [Example 32]
inhibition in vivo at 160 mg/kg [1, 6]: 37.5%

COc1cc(C(OCCN(C)C)c2ccnn2C)cc(OC)c1OC (stereo not shown) [Example 33]
inhibition in vivo at 160 mg/kg [1, 6]: 35%

Cn1nccc1C(OCCN1CCCC1)c1ccccc1 (stereo not shown) [Example 34]
inhibition in vivo at 160 mg/kg [1]: 40%

CN(C)CCOC(c1ccccc1)c1c(Br)cnn1C (stereo not shown) [Example 37]
inhibition in vivo at 160 mg/kg [1, 6]: 77.5% | inhibition in vivo at 160 mg/kg [2, 5]: 72.5%

Cc1cc(C(C)(OCCN(C)C)c2ccccc2)n(C)n1 (stereo not shown) [Example 38]
inhibition in vivo at 160 mg/kg [1, 6]: 42.5%

Cc1cc(C(OCCN(C)C)c2ccccc2)n(C)n1 (stereo not shown) [Example 39]
inhibition in vivo at 160 mg/kg [1, 6]: 37.5%

CN(C)CCCOC(C)(c1ccc(Cl)cc1)c1nccn1C (stereo not drawn) [Example 59, α-(4-chlorophenyl)-α-methyl-1-methyl-0-(3-dimethylaminopropyl)-1H-imidazole-2-methanol]
inhibition in vivo at 160 mg/kg [2, 5]: 87.5% | inhibition in vivo at 160 mg/kg [3, 4]: 100%

CN(C)CCCOC(c1cccc(Cl)c1)c1nccn1C (stereo not shown) [Example 60]
inhibition in vivo at 160 mg/kg [2, 5]: 62.5% | inhibition in vivo at 160 mg/kg [3, 4]: 82.5%

CCC(OCCCN(C)C)(c1ccc(Cl)cc1)c1nccn1C (stereo not shown) [Example 61]
inhibition in vivo at 160 mg/kg [3, 4]: 97.5%

CN(C)CCCOC(C)(c1ccc(F)cc1)c1nccn1C (stereo not shown) [Example 64]
inhibition in vivo at 160 mg/kg [2, 5]: 50% | inhibition in vivo at 160 mg/kg [3, 4]: 100%

COc1cc(C(C)(OCCCN(C)C)c2nccn2C)cc(OC)c1OC (stereo not shown) [Example 68]
inhibition in vivo at 160 mg/kg [3, 4]: 95%

COc1ccc(C(C)(OCCCN(C)C)c2nccn2C)cc1 (stereo not shown) [Example 69]
inhibition in vivo at 160 mg/kg [3, 4]: 95%

CN(C)CCCOC(c1ccc(Cl)cc1)c1nccn1C (stereo not shown) [Example 70]
inhibition in vivo at 160 mg/kg [3, 4]: 100%

CN(C)CCCOC(C)(c1ccc(C(F)(F)F)cc1)c1nccn1C (stereo not shown) [Example 72]
inhibition in vivo at 160 mg/kg [3, 4]: 100%

CN(C)CCCOC(c1cccc(C(F)(F)F)c1)c1nccn1C (stereo not shown) [Example 73]
inhibition in vivo at 160 mg/kg [3, 4]: 100%
